Measurements reported in patent US8022209B2, “Substituted nitrogen-containing heteroaryl derivatives useful as modulators of the histamine H4 receptor” (Janssen Pharmaceutica NV, priority 2007, dated 2011).
pKi: −log10 of the molar value.

Biological target: T1, human histamine H4 receptor (Homo sapiens, UniProt Q9H3N8)
T1 construct: expressed in transfected cells; host or cells: SK-N-MC cells or COS7 cells, transiently transfected with pH4R; cell membranes
Experiment: Binding Assay on Recombinant Human Histamine H4 Receptor
Settings: competition binding vs 3H-histamine (5 nM, KD 5 nM), membranes of SK-N-MC or COS7 cells transfected with human H4R; Cheng-Prusoff; average of results obtained
Description: Binding Assay on Recombinant Human Histamine H4 Receptor
SK-N-MC cells or COS7 cells were transiently transfected with pH4R and grown in 150 cm^2 tissue culture dishes. Cells were washed with saline solution, scraped with a cell scraper and collected by centrifugation (1000 rpm, 5 min). Cell membranes were prepared by homogenization of the cell pellet in 20 mM Tris-HCl with a polytron tissue homogenizer for 10 sec at high speed. Homogenate was centrifuged at 1000 rpm for 5 min at 4° C. The supernatant was then collected and centrifuged at 20,000×g for 25 min at 4° C. The final pellet was resuspended in 50 mM Tris-HCl. Cell membranes were incubated with ^3H-histamine (5-70 nM) in the presence or absence of excess histamine (10,000 nM). Incubation occurred at room temperature for 45 min. Membranes were harvested by rapid filtration over Whatman GF/C filters and washed 4 times with ice-cold 50 mM Tris HCl. Filters were then dried, mixed with scintillant and counted for radioactivity. SK-N-MC or COS7 cells expressing human histamine H4 receptor were used to measure the affinity of binding of other compounds and their ability to displace ^3H-ligand binding by incubating the above-described reaction in the presence of various concentrations of inhibitor or compound to be tested. For competition binding studies using ^3H-histamine, Ki values were calculated, based on an experimentally determined KD value of 5 nM and a ligand concentration of 5 nM, according to Y. C.

T1 sequence (Q9H3N8 whole entry): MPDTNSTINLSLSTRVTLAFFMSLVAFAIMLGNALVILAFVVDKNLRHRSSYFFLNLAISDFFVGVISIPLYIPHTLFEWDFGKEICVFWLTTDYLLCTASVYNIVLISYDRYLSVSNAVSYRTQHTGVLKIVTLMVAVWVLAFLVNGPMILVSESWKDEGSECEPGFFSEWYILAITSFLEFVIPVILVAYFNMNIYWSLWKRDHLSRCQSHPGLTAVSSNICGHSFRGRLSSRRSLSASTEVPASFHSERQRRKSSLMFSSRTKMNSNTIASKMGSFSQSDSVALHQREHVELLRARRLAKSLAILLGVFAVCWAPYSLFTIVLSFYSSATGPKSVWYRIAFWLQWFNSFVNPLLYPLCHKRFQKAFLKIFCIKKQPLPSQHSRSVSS

COc1cscc1-c1ncnc(N2CCN(C)CC2)n1 [compound 130, 2-(4-Methoxy-thiophen-3-yl)-4-(4-methyl-piperazin-1-yl)-[1,3,5]triazine]
pKi: 6.19

CN1CCN(c2ncnc(-c3ccccc3)n2)CC1 [compound 118, 2-(4-Methyl-piperazin-1-yl)-4-phenyl-[1,3,5]triazine]
pKi: 6.89

CN1CCN(c2ncnc(-c3ccc(Br)cc3)n2)CC1 [compound 10, 2-(4-Bromo-phenyl)-4-(4-methyl-piperazin-1-yl)-[1,3,5]triazine]
pKi: 7.44

Cc1ccsc1-c1ncnc(N2CCN(C)CC2)n1 [compound 136]
pKi: 7.10

CN1CCN(c2ncnc(-c3cc(F)cc(F)c3)n2)CC1 [compound 137, 2-(3,5-Difluoro-phenyl)-4-(4-methyl-piperazin-1-yl)-[1,3,5]triazine]
pKi: 7.11

CN1CCN(c2ncnc(-c3cccc(-c4ccccc4)c3)n2)CC1 [compound 108, 2-Biphenyl-3-yl-4-(4-methyl-piperazin-1-yl)-[1,3,5]triazine]
pKi: 5.72

CN1CCN(c2ncnc(-c3ccc(Cl)c(Cl)c3)n2)CC1 [compound 14, 2-(3,4-Dichloro-phenyl)-4-(4-methyl-piperazin-1-yl)-[1,3,5]triazine]
pKi: 7.52

CN1CCN(c2ccnc(-c3ccoc3)c2)CC1 [compound 28]
pKi: 7.60

Cc1ccc(F)cc1-c1ncnc(N2CCN(C)CC2)n1 [compound 123, 2-(5-Fluoro-2-methyl-phenyl)-4-(4-methyl-piperazin-1-yl)-[1,3,5]triazine]
pKi: 7.22

CN1CCN(c2ccnc(-c3ccco3)c2)CC1 [compound 27]
pKi: 7.06

Cc1nc(-c2sccc2Br)nc(N2CCN(C)CC2)n1 [compound 23, 2-(3-Bromo-thiophen-2-yl)-4-methyl-6-(4-methyl-piperazin-1-yl)-[1,3,5]triazine]
pKi: 7.51

CN1CCN(c2ncnc(-c3ccc(Cl)cc3)n2)CC1 [compound 13, 2-(4-Chloro-phenyl)-4-(4-methyl-piperazin-1-yl)-[1,3,5]triazine]
pKi: 8.00
